Measured values reported in patent EP1066315B1 (University of Dundee, priority 1998, dated 2008).
Residues, ends and D or L forms follow the SMILES beside them. *: point of attachment. Fmoc = O=C(OCC1c2ccccc2-c2ccccc21)*

Tested on: AEP
Test: Hydrolysis of asparagine peptide substrate by B cell lysosomal fractions
Type: biochemical, human
Conditions: increasing concentrations of peptide, Fig 3b
Description: The invention will now be described by reference to the following Examples and Figures wherein • Figure 1: Processing of TTCF by a leupeptin-insensitive cysteine endopeptidase activity. (a) TTCF was digested in vitro in the presence of disrupted lysosomes (1-2 µg) in the presence or absence of iodoacetamide (1 mM), leupeptin, E64 or pepstatin (each at 0.1 mg/ml). Digestions were in 0.1 M NH4 acetate at pH 4.5 or Na2HPO4, pH 6.0 or 7.0. After 4 hours at 37°C, the reactions were separated by Tris-tricine SDS-PAGE and stained with Coomassie Blue. (b) Cleavage sites: TTCF digestion products were separated by SDS PAGE and electrophoretically transferred to nitrocellulose membrane. Individual fragments numbered 1-6 were subjected to 5 cycles of Edman degradation. N-terminal sequence obtained is shown in bold following upstream residues from TTCF (tetanus toxin numbering). […] (c) Each fraction was analysed by SDS-PAGE and Western blotting. […] Release of 7-amino-4-methyl coumarin was measured after 10, 20 or 30 minutes. […] At different times the cells were washed, fixed in 0.05 % glutaraldehyde and antigen presentation measured using proliferation of different autologous TTCF-specific T cell clones. c, AEP pre-processing of TTCF speeds antigen presentation. […] Presentation was measured after 60 minutes of antigen pulsing using EBV B cells. […]

C[C@H](NC(=O)OCC1c2ccccc2-c2ccccc21)C(=O)N[C@@H](CCC(=O)O)C(=O)N[C@@H](CC(N)=O)C(=O)N[C@@H](CCCCN)C(N)=O [AENK, Ala-Glu-Asn-Lys-NH] (Fmoc-AENK-NH2)
cleavage of Z-Val-Ala-Asn-NHMec: completely blocked
